# Reference: patent publication US20090240046A1, “CARBOXYLATED GLUCOSAMINE COMPOUNDS FOR INHIBITING THE ACTIVATION AND EXPRESSION OF MATRIX METALLOPROTEINASE-9 IN HUMAN FIBROSARCOMA CELLS AND MATRIX METALLOPROTEINASE-9 INHIBITORS CONTAINING THE SAME” (priority 2006, published 2009)
# Key:
# Format in all cases: cell-based, human
# MMP-9 [1] = assay: Gelatin zymography of MMP-9 gelatinolytic activity in conditioned medium of PMA-stimulated HT1080 cells; details: 500 μg/mL CGlc, HT1080 cells stimulated with PMA 10 ng/mL
# Description: MMP-9 activity in HT1080 cells was assayed by gelatin zymography as described previously. For this, approximately 2×10^5 cells/mL HT1080 cells in serum free DMEM medium were seeded in 24-well plates and pre-treated with different concentrations of CGlc for 1 h. MMP-9 expression was stimulated by treatment of PMA (10 ng/mL) and cells were cultured for 48 h. Cell conditioned medium was subjected to substrate gel electrophoresis. Similar amount of protein containing conditioned media were applied without reduction to a 10% (w/v) polyacrylamide gel impregnated with 1 mg/mL gelatin. After electrophoresis, gel was washed in 50 mM Tris-HCl (pH 7.5) containing 2.5% Triton X-100 at room temperature and incubated overnight at 37° C. in zymography developing buffer containing 10 mM CaCI2, 50 mM Tris-HCl, and 150 mM NaCl. The gel was then stained with a […]. In this assay clear zones against the blue background indicate the presence of gelatinolytic activity.
# The image of the gel was recorded using Fujifilm Image Reader LAS-3000 software in Science Image System, LAS 3000 (Fujifilm Life Science, Tokyo, Japan). The gelatinolytic activities were quantified using Multi Gauge V3.0 software.
# To analyze the inhibition of MMP-9 mediated gelatinolytic activity in conditioned medium stimulated with PMA, we utilized human fibrosarcoma cell line, HT1080. […]
# HT1080 cells = assay: MTT cell viability (cytotoxicity) assay; details: even at 1 mg/mL, 24 h, in the presence and absence of FBS
# Description: Equal number of HT1080 cells (4000 cells per well) cultured in 96-well plates with serum and serum free media were treated with various concentrations of CGlc for 24 h. Cell viability was then evaluated with the 3-(4,5-dimethyl[…])-2,5-diphenyltetrazolium bromide (MTT) spectrophotometrically (GENios® microplate reader, Tecan Austria GmbH, Austria) which measures conversion of tetrazolium salt in to blue formazan by viable cells.
# MMP-9 [2] = assay: Fluorescence conjugated gelatin digestion assay on conditioned medium of PMA-stimulated HT1080 cells
# Description: HT1080 cells grown in 24-well plates were treated with different concentrations of CGlc and conditioned media were collected by centrifugation at 13 000×g following PMA (10 ng/mL) treatment. Enzyme activities of conditioned media in 50 mmol/l Tris-HCl buffer (pH 7.5), 0.15 mol/l NaCl, 10 mmol/l CaCl2, 0.02% NaN3 (TNC buffer) containing 0.05% Brij 35 were determined using fluorescence conjugated gelatin peptide (Collagen Technology Corporation, Tokyo, Japan) as the substrate.
# Fluoropeptides were incubated with conditioned media at 37° C. for 20 h, and the reaction was terminated by addition of 3% acetic acid. Fluorescence intensity was measured at 495 nm (excitation) and 520 nm (emission) with a GENios® fluorescence microplate reader (Tecan Austria GmbH, Austria).
# The MMP-9 inhibitory effect of CGlC on MMP-9 activity stimulated by PMA in HT1080 cells was further confirmed using more sensitive fluorescence conjugated gelatin digestion assay which use fluorescence conjugated gelatin peptides as the substrate for MMP-9. The amount of active gelatinases (MMP-9/-2) present in CGIc treated stimulated conditioned medium obtained from incubation of HT1080 cells was assesssed from the resulting fluorescence activity. […] Therefore it can be presumed that difference in fluorescence intensities were mainly due to activity of MMP-9. […]
# MMP-9 promoter = MMP-9 promoter luciferase reporter assay in transfected HT1080 cells; details: PMA-stimulated transfected HT1080 cells
# Description: (§1) HT1080 cells cultured in 10 cm culture dishes were transiently transfected with MMP-9 promoter containing pGL3 luciferase reporter vector (Promega, Madison, Wis.) or AP-1 binding site containing luciferase reporter plasmid (Colontech, Palo Alto, […]) by Lipofectamine™ 2000™ reagent (Invitrogen). Beta-galactosidase expression vector co-transfected with the reporter vector to serve as an internal control of transfection efficiency. Transfected cells sub-cultured in 24-well plates were treated with different concentrations of CGlc. Following stimulation with PMA cells were cultured for 24 h. Cells were washed once with cold PBS and lysed with 200 μl/well lysis buffer (25 mM Tri-HCl, pH 8.0, containing 2 mM DDT and 1% Triton-X 100). Aliquots of cell lysate and luciferase substrate (Promega) were mixed in equal amounts in a 96-well plate and luminescence intensity was measured with a luminescence microplate reader (Tecan Austria GmbH, Austria). Beta-galactosidase activity was measured with ONPG buffer. The level of reporter gene expression was determined as a ratio, compared with cells stimulated by PMA (10 ng/mL) alone and represented as relative luciferase activity.
# (§2) Transfection efficiency was determined by X-Gal staining method. Briefly, transfected cells were fixed with 0.5% glutaraldehyde and stained with X-Gal solution containing 20 mM K3Fe(CN)6, K4Fe(CN)6 and 1 mM MgCl2. […]
# AP-1 = AP-1 binding site luciferase reporter assay in transfected HT1080 cells; details: 500 μg/mL CGlc, PMA-stimulated transfected HT1080 cells
# Description: as §1, §2
substance,measurement,setting,value
Carboxylated glucosamine [CGlc],inhibition of MMP-9 lead gelatinolytic activity,MMP-9 [1],approximately 60%
same,toxicity on HT1080 cells (MTT viability),HT1080 cells,did not show any toxicity
same,reduction of fluorescence intensity,MMP-9 [2]; 100 μg/mL CGlc,about 50%
same,decrease of relative fluorescence activity,MMP-9 [2]; 500 μg/mL CGlc,up to 66%
same,inhibition of MMP-9-luciferase reporter gene activity,MMP-9 promoter; 100 μg/mL CGlc,Approximately 50%
same,inhibition of MMP-9-luciferase reporter gene activity,MMP-9 promoter; 500 μg/mL CGlc,approximately 3 fold
same,suppression of AP-1 reporter activity,AP-1,2-3 fold
